For this assay, the system named is HCV Con 1 subgenomic replicon. Briefly: HCV replicon assay (Huh-7 GS4.1 cells, NS4A ELISA). The class given is cell-based. To be noted: Hepatitis C virus, Huh-7 GS4.1 replicon cells, 72 hours. On the procedure: The HCV replicon assay was carried out in the same manner described in WO 2010/018140, WO 2011/123586, Okuse et al Antivir. Res. 2005, 65, p. 23, Blight et al Science 2000, 290, p. 1972, Korba and Gerin Antivir. Res. 1992, 19, p. 55). Huh-7 cells containing HCV Con 1 subgenomic replicon (GS4.1 cells) were grown in Dulbecco's Modified Eagle Medium (DMEM) supplemented with 10% fetal bovine serum (FBS), 2 mM L-glutamine, 110 mg/L sodium pyruvate, 1× non-essential amino acids, 100 U/mL penicillin-streptomycin and 0.5 mg/mL G418 (Invitrogen). For dose-response testing, the cells were seeded in 96-well plates at 7.5×10^3 cells/well in a volume of […] and incubated at 37° C./5% CO2. […] The cells were incubated in the presence of compounds for 72 hours after which they are monitored for expression of the NS4A protein by enzyme-linked immunosorbent assay (ELISA). […] The reaction was stopped after 30 minutes with 2 N H2SO4 and the absorbance was read at 492 nm using a Sunrise Tecan spectrophotometer. EC50 values were determined from the % inhibition vs concentration data using a sigmoidal non-linear regression analysis based on four parameters with Tecan Magellan software. For cytotoxicity evaluation, GS4.1 cells are treated with compounds as described and cellular viability can be monitored using a Cell Titer 96 AQueous One Solution Cell Proliferation Assay (Promega). […]
For orientation: Replicon systems follow genome replication, usually without infectious particles.

The term EC50 denotes the concentration that produces a half-maximal response. Higher therefore signals lower potency in that assay. The compound `CC/C=C\C/C=C\C/C=C\C/C=C\C/C=C\C/C=C\CCC(=O)NCCNP(=O)(OC[C@H]1O[C@@H](n2ccc(=O)[nH]c2=O)[C@](C)(F)[C@@H]1O)Oc1ccccc1` (stereo partly drawn) [II-1, ((2R,3R,4R,5R)-5-(2,4-dioxo-3,4-dihydropyrimidin-1(2H)-yl)-4-fluoro-3-hydroxy-4-methyltetrahydrofuran-2-yl)methyl phenyl (2-((4Z,7Z,10Z,13Z,16Z,19Z)-docosa-4,7,10,13,16,19-hexaenamido)ethyl) phosphoramidate] yielded a 50% effective concentration (EC50) of 780 nM.

Source of the values: US20140288025A1, “FATTY ACID ANTIVIRAL CONJUGATES AND THEIR USES” (Catabasis Pharmaceuticals, Inc., priority 2013, published 2014).
